Assays:
Cannabinoid receptor 1 = Cannabinoid receptor 1 (Homo sapiens, UniProt P21554); test: Displacement of [3H]-SR141716A from recombinant human CB1 receptor expressed in CHO cells membrane incubated for 90 mins; assay type: cell membranes
Cannabinoid receptor 2 [1] = target: T1, Cannabinoid receptor 2 (Homo sapiens, UniProt P34972); test: Displacement of [3H]-WIN55212-2 from human CB2 receptor transfected in CHO cells membrane incubated for 90 mins; assay type: cell membranes
Cannabinoid receptor 2 [2] = target: T1, Cannabinoid receptor 2; test: Displacement of [3H]-WIN55212-2 from human CB2 receptor transfected in CHO-K1 cell membrane incubated for 90 mins by Liquid scintillation counter analysis; assay type: cell membranes
Homo sapiens [3] = species on record: Homo sapiens; test: Selectivity ratio of Ki for displacement of [3H]-SR141716A from human CB1 receptor to Ki for displacement of [3H]-WIN55212-2 from human CB2 receptor
Homo sapiens [4] = species on record: Homo sapiens; test: Selectivity ratio of Ki for human CB1 receptor to Ki for human CB2 receptor
Cannabinoid receptor 2 [5] = target: T1, Cannabinoid receptor 2; test: Inhibition of human CB2 receptor assessed as inhibition constant; assay type: functional
Cannabinoid receptor 2 [6] = target: T2, Cannabinoid receptor 2 (Rattus norvegicus, UniProt Q9QZN9); test: Displacement of [18F]-LU13 from rat spleen CB2 receptor incubated for 90 mins by competitive radioligand binding assay; assay type: tissue-based
T2 sequence (Q9QZN9 whole entry): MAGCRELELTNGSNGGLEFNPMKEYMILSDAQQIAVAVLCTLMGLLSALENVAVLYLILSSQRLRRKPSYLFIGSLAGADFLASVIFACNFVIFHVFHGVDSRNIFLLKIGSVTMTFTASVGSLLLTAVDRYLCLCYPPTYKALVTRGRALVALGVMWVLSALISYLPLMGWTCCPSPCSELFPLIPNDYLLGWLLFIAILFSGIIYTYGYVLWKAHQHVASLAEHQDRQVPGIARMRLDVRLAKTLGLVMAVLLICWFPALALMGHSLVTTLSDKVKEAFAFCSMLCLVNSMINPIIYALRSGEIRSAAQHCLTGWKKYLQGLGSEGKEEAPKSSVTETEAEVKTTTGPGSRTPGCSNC

Cannabinoid receptor 2 [7] = target: T1, Cannabinoid receptor 2; test: Displacement of [18F]-LU13 from human CB2 receptor transfected in CHO cells membrane homogenate incubated for 90 mins by competitive radioligand binding assay; assay type: cell membranes
[8] = Metabolic stability in CD-1 mouse plasma assessed as parent compound remaining measured after 30 mins by radio-HPLC analysis; assay type: ADME, cell-free; conditions: read-out: Stability
[9] = Metabolic stability in CD-1 mouse brain assessed as parent compound remaining measured after 30 mins by radio-HPLC analysis; assay type: ADME, tissue-based; conditions: read-out: Stability
[10] = Metabolic stability in CD-1 mouse spleen assessed as parent compound remaining measured after 30 mins by radio-HPLC analysis; assay type: ADME, tissue-based; conditions: read-out: Stability
[11] = Drug uptake in iv dosed Wistar rat brain striatum overexpressing human CB2 receptor (D80N) assessed as time to peak radioactivity measured after 26 mins of post injection by PET imaging analysis; assay type: ADME, organism-based; conditions: in vivo
[12] = Drug uptake in iv dosed Wistar rat brain striatum overexpressing human CB2 receptor (D80N) assessed as TAC peak standardized uptake of compound by PET imaging analysis; assay type: ADME, organism-based; conditions: in vivo
[13] = Drug uptake in iv dosed Wistar rat brain contralateral region overexpressing human CB2 receptor (D80N) assessed as time to peak radioactivity measured after 26 mins of post injection by PET imaging analysis; assay type: ADME, organism-based; conditions: in vivo
[14] = Drug uptake in iv dosed Wistar rat brain contralateral region overexpressing human CB2 receptor (D80N) assessed as TAC peak standardized uptake of compound by PET imaging analysis; assay type: ADME, organism-based; conditions: in vivo
[15] = MRT in iv dosed Wistar rat brain contralateral region overexpressing human CB2 receptor (D80N) by PET imaging analysis; assay type: ADME, organism-based; conditions: in vivo
[16] = Drug uptake in iv dosed Wistar rat brain cerebellum overexpressing human CB2 receptor (D80N) assessed as time to peak radioactivity measured after 26 mins of post infection by PET imaging analysis; assay type: ADME, organism-based; conditions: in vivo
[17] = Drug uptake in iv dosed Wistar rat brain cerebellum overexpressing human CB2 receptor (D80N) assessed as TAC peak standardized uptake of compound by PET imaging analysis; assay type: ADME, organism-based; conditions: in vivo
[18] = MRT in iv dosed Wistar rat brain cerebellum overexpressing human CB2 receptor (D80N) by PET imaging analysis; assay type: ADME, organism-based; conditions: in vivo
[19] = tested as the 18F-labelled form

Sequence of Cannabinoid receptor 1 (P21554 whole entry): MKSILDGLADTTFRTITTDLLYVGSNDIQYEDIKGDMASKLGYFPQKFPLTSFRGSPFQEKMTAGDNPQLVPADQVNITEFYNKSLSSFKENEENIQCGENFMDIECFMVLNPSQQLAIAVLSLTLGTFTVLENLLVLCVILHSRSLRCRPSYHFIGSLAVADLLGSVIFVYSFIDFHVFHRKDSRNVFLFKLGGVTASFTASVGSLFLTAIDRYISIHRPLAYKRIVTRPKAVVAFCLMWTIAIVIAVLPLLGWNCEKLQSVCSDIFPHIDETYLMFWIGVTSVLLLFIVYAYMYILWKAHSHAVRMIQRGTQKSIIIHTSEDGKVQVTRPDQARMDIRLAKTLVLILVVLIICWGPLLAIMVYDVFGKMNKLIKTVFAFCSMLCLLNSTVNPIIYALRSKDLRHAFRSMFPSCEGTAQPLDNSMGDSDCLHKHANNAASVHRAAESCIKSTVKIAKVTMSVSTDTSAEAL
T1 sequence (P34972 whole entry): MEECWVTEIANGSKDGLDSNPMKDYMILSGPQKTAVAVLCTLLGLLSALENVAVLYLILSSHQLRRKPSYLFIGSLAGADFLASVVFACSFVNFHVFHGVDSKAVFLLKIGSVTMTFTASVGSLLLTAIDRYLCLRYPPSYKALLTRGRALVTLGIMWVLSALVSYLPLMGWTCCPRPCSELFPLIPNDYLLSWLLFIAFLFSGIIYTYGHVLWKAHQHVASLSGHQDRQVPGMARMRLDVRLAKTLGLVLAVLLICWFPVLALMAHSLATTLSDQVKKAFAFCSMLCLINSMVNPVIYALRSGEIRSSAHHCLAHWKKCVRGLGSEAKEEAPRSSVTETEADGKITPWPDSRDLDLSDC

In the case of `O=C(Nc1ccccc1)c1cc2cccnc2n(CCCCF)c1=O`, the Ki (Cannabinoid receptor 1) is reported as 2200 nM and the Ki (Cannabinoid receptor 2 [1]) is reported as > 10000 nM.
In the case of `C[C@H]1CC[C@H](NC(=O)c2cc3cccnc3n(CCOCCF)c2=O)CC1`, the Ki (Cannabinoid receptor 1) is reported as 780 nM.
Compound `C[C@H]1CC[C@H](NC(=O)c2cc3cc(-c4ccco4)cnc3n(CCCF)c2=O)CC1` has a Ki (Cannabinoid receptor 1) of 6800 nM.
In the case of `O=C(Nc1cccnc1)c1cc2cccnc2n(CCCCF)c1=O`, the Ki (Cannabinoid receptor 1) is reported as > 1000 nM and the Ki (Cannabinoid receptor 2 [1]) is reported as > 10000 nM.
`COc1cccc2c(=O)c(C(=O)NC34CC5CC(CC(C5)C3)C4)cn(CCOCCC[18F])c12` showed a Ki (Cannabinoid receptor 2 [2]) of 0.9 nM.
For `C[C@H]1CC[C@@H](NC(=O)c2cc3cc(-c4ccco4)cnc3n(Cc3ccccc3F)c2=O)CC1`, the Ki (Cannabinoid receptor 1) was 65 nM, the Ki (Cannabinoid receptor 2 [1]) was > 10000 nM and the Ratio Ki (Homo sapiens [3]) was > 153.
With `C[C@H]1CC[C@@H](NC(=O)c2cc3cccnc3n(CCOCCF)c2=O)CC1` the Ki (Cannabinoid receptor 1) was 13 nM, the Ki (Cannabinoid receptor 2 [1]) was > 10000 nM and the Ratio Ki (Homo sapiens [3]) was > 714.
With `O=C(NC12CC3CC(CC(C3)C1)C2)c1cc2cccnc2n(Cc2ccc(F)cc2)c1=O` the Ki (Cannabinoid receptor 1) was 1.5 nM and the Ki (Cannabinoid receptor 2 [1]) was > 1000 nM.
With `C[C@H]1CC[C@@H](NC(=O)c2cc3cc(-c4ccco4)cnc3n(CCCF)c2=O)CC1` the Ki (Cannabinoid receptor 1) was 28 nM and the Ki (Cannabinoid receptor 2 [1]) was > 10000 nM.
With `CCC(CC)(NC(=O)c1ccc(N2CC(OC)C2)c(OC[C@H]2C[C@@H]2CO)n1)C(=O)OCCCF` the Ratio Ki (Homo sapiens [4]; tested as the 18F, 2H-labelled form) was > 10000.
Work on `C[C@H]1CC[C@H](NC(=O)c2cc3cc(-c4ccco4)cnc3n(Cc3cccc(F)c3)c2=O)CC1` yielded a Ki (Cannabinoid receptor 1) of 5000 nM.
With `CC1CCC(NC(=O)c2cc3cc(Br)cnc3n(CCCCF)c2=O)CC1` (mixture of isomers) the Ki (Cannabinoid receptor 1) was 4.8 nM and the Ki (Cannabinoid receptor 2 [1]) was > 10000 nM.
With `O=C(NC12CC3CC(CC(C3)C1)C2)c1cc2cccnc2n(CCOCCF)c1=O` the Ki (Cannabinoid receptor 1) was 3.9 nM and the Ki (Cannabinoid receptor 2 [1]) was > 1000 nM.
For `C[C@H]1CC[C@@H](NC(=O)c2cc3cc(-c4ccco4)cnc3n(Cc3ccc(F)cc3)c2=O)CC1`, the Ki (Cannabinoid receptor 1) was 5 nM, the Ki (Cannabinoid receptor 2 [1]) was 915 nM and the Ratio Ki (Homo sapiens [3]) was > 183.
In the case of `C[C@H]1CC[C@H](NC(=O)c2cc3cc(-c4ccco4)cnc3n(Cc3ccc(F)cc3)c2=O)CC1`, the Ki (Cannabinoid receptor 1) is reported as 86 nM.
With `O=C(Nc1ccc(F)cc1)c1cc2cccnc2n(CCCCF)c1=O` the Ki (Cannabinoid receptor 1) was 3900 nM and the Ki (Cannabinoid receptor 2 [1]) was > 10000 nM.
In the case of `O=C(NCc1ccc(F)cc1)c1cc2cccnc2n(CCCCF)c1=O`, the Ki (Cannabinoid receptor 1) is reported as 1100 nM and the Ki (Cannabinoid receptor 2 [1]) is reported as > 10000 nM.
With `O=C(Nc1ccncc1)c1cc2cccnc2n(CCCCF)c1=O` the Ki (Cannabinoid receptor 1) was > 1000 nM and the Ki (Cannabinoid receptor 2 [1]) was > 10000 nM.
In the case of `C[C@H]1CC[C@H](NC(=O)c2cc3cccnc3n(CCCF)c2=O)CC1`, the Ki (Cannabinoid receptor 1) is reported as 4600 nM.
For `C[C@H]1CC[C@@H](NC(=O)c2cc3cc(-c4ccco4)cnc3n(CCCCF)c2=O)CC1`, the Ki (Cannabinoid receptor 1) was 3.3 nM, the Ki (Cannabinoid receptor 2 [1]) was > 10000 nM and the Ratio Ki (Homo sapiens [3]) was > 303.
With `C[C@H]1CC[C@@H](NC(=O)c2cc3cccnc3n(CCCCF)c2=O)CC1` the Ki (Cannabinoid receptor 1) was 6 nM, the Ki (Cannabinoid receptor 2 [1]) was > 1000 nM and the Ratio Ki (Homo sapiens [3]) was > 167.
For `C[C@H]1CC[C@H](NC(=O)c2cc3cc(-c4ccco4)cnc3n(Cc3ccccc3F)c2=O)CC1`, the Ki (Cannabinoid receptor 1) was > 10000 nM.
Compound `C[C@H]1CC[C@@H](NC(=O)c2cc3cccnc3n(CCCF)c2=O)CC1` has a Ki (Cannabinoid receptor 1) of 115 nM.
`Cc1s/c(=N\C(=O)C2C(C)(C)C2(C)C)n(CCCCF)c1C` gave a Ratio Ki (Homo sapiens [3]; [19]) of 1000.
`CCCCOc1c(OC)ccc2cc(C(=O)NC3CCCCC3)c(=O)[nH]c12` showed a Ratio Ki (Homo sapiens [4]; tested as the 11C-labelled form) of 100.
With `CC1CCC(NC(=O)c2cc3cc(Br)cnc3n(Cc3ccc(F)cc3)c2=O)CC1` (mixture of isomers) the Ki (Cannabinoid receptor 1) was 1.7 nM, the Ki (Cannabinoid receptor 2 [1]) was > 155 nM and the Ratio Ki (Homo sapiens [3]) was 91.
`Cc1s/c(=N\C(=O)C2C(C)(C)C2(C)C)n(CCCC[18F])c1C` showed a Ki (Cannabinoid receptor 2 [1]) of 0.4 nM.
In the case of `COc1cccc2c(=O)c(C(=O)NC34CC5CC(CC(C5)C3)C4)cn(CCOCCCF)c12`, the Ratio Ki (Homo sapiens [3]; [19]) is reported as > 10000.
With `O=C(Nc1ccc(F)nc1)c1cc2cccnc2n(CCCCF)c1=O` the Ki (Cannabinoid receptor 1) was > 1000 nM and the Ki (Cannabinoid receptor 2 [1]) was > 10000 nM.
Work on `[2H]C([2H])([18F])C([2H])([2H])C([2H])([2H])OC(=O)C(CC)(CC)NC(=O)c1ccc(N2CC(OC)C2)c(OC[C@H]2C[C@@H]2CO)n1` yielded a Ki (Cannabinoid receptor 2 [5]) of 0.6 nM.
For `C[C@H]1CC[C@@H](NC(=O)c2cc3cc(-c4ccco4)cnc3n(Cc3cccc(F)c3)c2=O)CC1`, the Ki (Cannabinoid receptor 1) was 2.9 nM, the Ki (Cannabinoid receptor 2 [1]) was > 10000 nM and the Ratio Ki (Homo sapiens [3]) was > 1000.
Work on `C[C@H]1CC[C@H](NC(=O)c2cc3cc(-c4ccco4)cnc3n(CCCCF)c2=O)CC1` yielded a Ki (Cannabinoid receptor 1) of 49 nM.
In the case of `O=C(NC12CC3CC(CC(C3)C1)C2)c1cc2cccnc2n(CCCCF)c1=O`, the Ki (Cannabinoid receptor 1) is reported as 0.6 nM, the Ki (Cannabinoid receptor 2 [1]) is reported as > 1000 nM and the Ratio Ki (Homo sapiens [3]) is reported as > 1000. It also gave an IC50 (Cannabinoid receptor 2 [6]) of 0.22 nM and an IC50 (Cannabinoid receptor 2 [7]) of 1.17 nM.
In the case of `[2H]C([2H])([18F])C([2H])([2H])C([2H])([2H])C([2H])([2H])n1c(=O)c(C(=O)NC23CC4CC(CC(C4)C2)C3)cc2cccnc21`, the remaining at 0.5 h [8] is reported as 23%, the remaining at 0.5 h [9] is reported as 85% and the remaining at 0.5 h [10] is reported as 95%. For the same compound, the Drug uptake [11] was 26 min, the Drug uptake [12] was 3.6 SUV.min and the Drug uptake [13] was 6.1 min. It also gave a Drug uptake [14] of 1.7 SUV.min, an MRT [15] of 23 min and a Drug uptake [16] of 5.4 min. The Drug uptake [17] was 1.8 SUV.min and the MRT [18] was 23 min.
